{"source": "patent US20220339122A1", "about": "“METHODS FOR THE TREATMENT OF DISEASES ASSOCIATED WITH DYSREGULATED ACTIVATION AND RECRUITMENT OF NEUTROPHILS” (Chang Gung University, priority 2021, published 2022)", "key": {"BALB/c mice": {"test_system": "BALB/c mice", "experiment": "LPS-induced mortality model in mice", "type": "in vivo", "details": "25 mg/Kg bletinib; LPS 5 mg/Kg; monitored 5 days; log-rank p=0.0085", "protocol": "For the LPS-induced mortality model, mice were intraperitoneally injected with a single 50-μL dose of LPS (from Escherichia coli O111:B4; 5 mg/kg) or 0.9% saline (vehicle alone group). The mice were monitored for 5 days to determine the survival rate."}, "human neutrophils [1]": {"test_system": "human neutrophils", "experiment": "Extracellular superoxide anion production in stimulated neutrophils (ferricytochrome c reduction)", "type": "cell-based", "protocol": "Extracellular superoxide anion production in activated neutrophils was assessed through the reduction of ferricytochrome c. After incubating them with Ca^2+ (1 mM) and ferricytochrome c (0.5 mg/mL) at 37° C., the isolated human neutrophils (6×10^5 cells/mL) were then incubated with 0.1% DMSO or 0.3-10 μM bletinib for 5 min. The cells were pretreated with cytochalasin B (CB, 1 or 2 μg/mL) for 3 min and stimulated with fMLF, MMK-1, or sodium fluoride (NaF), or directly activated with phorbol-12-myristate-13-acetate (PMA). The change in absorbance at 550 nm was detected continuously using a spectrophotometer (U-3010, Hitachi, Tokyo, Japan), and superoxide anion levels were calculated using a method described previously (Hwang et al., 2003 Mol. Pharmacol. 64(6), 1419-1427)."}, "Lyn": {"target": "Lyn (Homo sapiens, UniProt P07948)", "sequence (P07948 whole entry)": "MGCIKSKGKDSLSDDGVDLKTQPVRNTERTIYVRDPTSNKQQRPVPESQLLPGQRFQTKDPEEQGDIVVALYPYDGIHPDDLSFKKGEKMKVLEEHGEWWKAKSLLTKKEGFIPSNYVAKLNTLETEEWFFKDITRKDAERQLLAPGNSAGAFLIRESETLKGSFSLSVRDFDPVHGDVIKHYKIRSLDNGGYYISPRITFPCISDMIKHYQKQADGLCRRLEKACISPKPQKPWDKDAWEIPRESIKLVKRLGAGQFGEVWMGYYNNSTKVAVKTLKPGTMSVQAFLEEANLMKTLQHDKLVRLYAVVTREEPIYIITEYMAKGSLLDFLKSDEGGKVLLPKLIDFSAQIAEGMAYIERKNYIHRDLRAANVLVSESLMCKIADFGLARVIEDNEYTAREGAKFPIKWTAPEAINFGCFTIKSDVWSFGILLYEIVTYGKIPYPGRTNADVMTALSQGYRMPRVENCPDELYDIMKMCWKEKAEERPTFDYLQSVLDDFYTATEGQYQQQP", "experiment": "Cell-free ADP-Glo kinase assay, Lyn", "type": "biochemical", "details": "1-10 μM bletinib or 0.1-3 μM PP2; 125 μM ATP; concentration-dependent", "protocol": "(§1) The kinase activity of SFKs was assessed using an ADP-Glo kinase assay kit (Promega, Fitchburg, USA) according to manufacturer instructions. […] The ADP-Glo reagent was used to end the kinase reaction and remove the remnant ATP; next, the kinase, which converted ADP to ATP, detection reagent was added and incubated for 30 min. Luciferin/luciferase luminescence was determined on an Infinite 200 Pro (Tecan, Switzerland)."}, "p-SFKs Y416": {"test_system": "p-SFKs Y416", "experiment": "Immunoblotting of neutrophil lysates, SFKs phosphorylation", "type": "cell-based, human", "details": "10 μM bletinib; 0.1 μM fMLF", "protocol": "(§2) Neutrophils incubated with bletinib or DMSO at 37° C. for 5 min were stimulated with 0.1 μM fMLF for 30 s. The proteins were separated from neutrophil lysates through electrophoresis (12% sodium dodecyl sulphate-polyacrylamide gel electrophoresis) and then transferred to nitrocellulose membranes. The target proteins were identified through immunoblotting with specific antibodies against p38, p-p38, Akt, p-Akt S473, ERK, p-ERK, INK, p-JNK, Src, p-SFKs Y416, p-Src Y416, Lyn, p-Lyn (Y396), Fgr, p-Fgr (Y412), Hck, p-Hck (Y410), Btk, p-Btk Y223, Vav, and p-Vav (Y174) as well as with HRP-conjugated secondary anti-rabbit antibody (Cell Signaling Technology). The signal intensity was detected and quantified using the UVP BioSpectrum Imaging System (Analytik Jena, USA)."}, "human neutrophils [2]": {"test_system": "human neutrophils", "experiment": "Intracellular superoxide/ROS production, DHR123 flow cytometry", "type": "cell-based", "details": "0.1-3 μM bletinib; 0.1 μM fMLF; dose-dependent", "protocol": "Human neutrophils (2.5×10^6 cells/mL) were labelled using 2 μM dihydrorhodamine 123 (DHR123) at 37° C. for 10 min and then incubated with DMSO or bletinib for 5 min and then stimulated with 0.1 μM fMLF/0.5 μg/mL CB for 15 min. The fluorescence intensity was detected through flow cytometry to evaluate intracellular superoxide anion production of human neutrophils."}, "Akt (S473)": {"test_system": "Akt (S473)", "experiment": "Immunoblotting of neutrophil lysates, Akt phosphorylation", "type": "cell-based, human", "details": "10 μM bletinib; 0.1 μM fMLF", "protocol": "as §2"}, "Src": {"target": "Src (Homo sapiens, UniProt P12931)", "sequence (P12931 whole entry)": "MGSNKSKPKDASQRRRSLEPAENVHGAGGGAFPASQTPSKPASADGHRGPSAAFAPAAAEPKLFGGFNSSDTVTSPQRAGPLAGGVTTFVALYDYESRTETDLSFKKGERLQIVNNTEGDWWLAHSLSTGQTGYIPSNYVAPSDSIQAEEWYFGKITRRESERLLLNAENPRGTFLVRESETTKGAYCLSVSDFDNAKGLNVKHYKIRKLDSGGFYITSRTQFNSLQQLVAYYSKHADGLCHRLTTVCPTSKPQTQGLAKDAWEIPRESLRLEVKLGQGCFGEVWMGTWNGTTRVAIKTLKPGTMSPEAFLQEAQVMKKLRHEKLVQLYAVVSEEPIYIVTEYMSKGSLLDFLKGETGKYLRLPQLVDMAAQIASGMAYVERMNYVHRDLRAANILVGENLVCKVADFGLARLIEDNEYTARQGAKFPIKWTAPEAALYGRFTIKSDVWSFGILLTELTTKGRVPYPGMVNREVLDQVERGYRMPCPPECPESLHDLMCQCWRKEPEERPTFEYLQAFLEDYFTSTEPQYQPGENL", "experiment": "Cell-free ADP-Glo kinase assay, Src", "type": "biochemical", "details": "1-10 μM bletinib or 0.1-3 μM PP2; 125 μM ATP; concentration-dependent", "protocol": "as §1"}, "human neutrophils [3]": {"test_system": "human neutrophils", "experiment": "Neutrophil elastase (NE) release (degranulation)", "type": "cell-based", "protocol": "Human neutrophils (6×10^5 cells/mL) were incubated with DMSO or bletinib after treatment with 1 mM CaCl2 and 100 μM NE substrate (Methoxysuccinyl-Ala-Ala-Pro-Val-p-nitroanilide) at 37° C. for 5 min. Cells were stimulated with fMLF/0.5 μg mL^−1 CB, leukotriene B4 (LTB4)/2 μg mL^−1 CB, NaF/2 μg mL^−1 CB, or MMK-1/0.5 μg mL-1 CB for 10 min before determination of NE release by measuring the change of absorbance at 405 nm in a spectrophotometer."}, "p-ERK": {"test_system": "p-ERK", "experiment": "Immunoblotting of neutrophil lysates, ERK phosphorylation", "type": "cell-based, human", "details": "10 μM bletinib; 0.1 μM fMLF", "protocol": "as §2"}, "[4]": {"experiment": "Superoxide scavenging capacity, WST-1 reduction", "type": "biochemical", "details": "WST-1 reduction at 450 nm", "protocol": "FIG. 1 Bletinib suppressed superoxide anion production in stimulated human neutrophils. Neutrophils (6×10^5 cells/mL) were incubated with 0.1% DMSO or […] bletinib for 5 min before activation with stimuli. Superoxide anion production was induced by (A) fMLF, (B) MMK-1, (C) NaF, or (D) PMA and then measured using ferricytochrome c reduction method. (E) Cytotoxicity was assessed using LDH release. (F) Superoxide scavenging capacity of bletinib was assessed in a xanthine/xanthine oxidase cell-free system. WST-1 reduction was measured through spectrophotometry at 450 nm, with 20 U/mL superoxide dismutase as the positive control."}, "Vav (Y174)": {"test_system": "Vav (Y174)", "experiment": "Immunoblotting of neutrophil lysates, Vav phosphorylation", "type": "cell-based, human", "details": "0.1 μM fMLF-stimulated neutrophils", "protocol": "as §2"}, "human neutrophils [5]": {"test_system": "human neutrophils", "experiment": "NET formation, quantification of extracellular DNA with Sytox green", "type": "cell-based", "details": "10 nM PMA; 1-10 μM bletinib", "protocol": "Human neutrophils (10^6 cells/mL) resuspended in HBSS with 2.5 μM Sytox green were incubated with DMSO or bletinib for 10 min and stimulated using 10 nM PMA or 10 μg/mL LPS for 3 h. The fluorescence intensity was quantified on a Tecan Infinite 200 reader at 485-535 nm."}, "Hck": {"target": "Hck (Homo sapiens, UniProt P08631)", "sequence (P08631 whole entry)": "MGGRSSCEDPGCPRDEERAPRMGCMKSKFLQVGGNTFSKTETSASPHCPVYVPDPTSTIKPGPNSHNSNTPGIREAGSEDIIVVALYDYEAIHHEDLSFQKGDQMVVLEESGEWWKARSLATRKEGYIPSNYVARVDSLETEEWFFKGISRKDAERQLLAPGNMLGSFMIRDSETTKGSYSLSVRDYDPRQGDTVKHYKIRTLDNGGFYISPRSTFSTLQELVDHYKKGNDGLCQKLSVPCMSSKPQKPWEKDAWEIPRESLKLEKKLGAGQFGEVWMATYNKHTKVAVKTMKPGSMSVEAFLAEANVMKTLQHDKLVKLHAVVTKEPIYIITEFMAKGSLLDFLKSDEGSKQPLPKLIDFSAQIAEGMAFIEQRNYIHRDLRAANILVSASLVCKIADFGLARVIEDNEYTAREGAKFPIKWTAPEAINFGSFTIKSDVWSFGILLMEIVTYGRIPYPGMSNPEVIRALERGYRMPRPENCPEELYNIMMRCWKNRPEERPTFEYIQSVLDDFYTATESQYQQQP", "experiment": "Cell-free ADP-Glo kinase assay, Hck", "type": "biochemical", "details": "1-10 μM bletinib or 0.1-3 μM PP2; 125 μM ATP; concentration-dependent", "protocol": "as §1"}, "Fgr": {"target": "Fgr (Homo sapiens, UniProt P09769)", "sequence (P09769 whole entry)": "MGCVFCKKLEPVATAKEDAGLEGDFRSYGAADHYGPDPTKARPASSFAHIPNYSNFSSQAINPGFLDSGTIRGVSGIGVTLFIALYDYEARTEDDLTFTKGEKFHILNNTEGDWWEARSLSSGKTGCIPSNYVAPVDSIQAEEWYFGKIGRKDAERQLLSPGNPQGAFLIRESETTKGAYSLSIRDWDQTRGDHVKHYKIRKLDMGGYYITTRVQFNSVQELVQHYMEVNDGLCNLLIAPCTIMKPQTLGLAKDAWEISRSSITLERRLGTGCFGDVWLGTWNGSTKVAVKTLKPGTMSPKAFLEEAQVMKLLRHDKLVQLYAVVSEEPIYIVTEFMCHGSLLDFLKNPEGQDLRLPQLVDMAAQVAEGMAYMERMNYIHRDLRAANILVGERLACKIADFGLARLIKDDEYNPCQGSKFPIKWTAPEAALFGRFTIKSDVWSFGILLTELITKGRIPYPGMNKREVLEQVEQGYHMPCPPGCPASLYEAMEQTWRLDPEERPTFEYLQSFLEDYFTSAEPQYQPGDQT", "experiment": "Cell-free ADP-Glo kinase assay, Fgr", "type": "biochemical", "details": "1-10 μM bletinib or 0.1-3 μM PP2; 125 μM ATP; concentration-dependent", "protocol": "as §1"}, "Src (Y416)": {"test_system": "Src (Y416)", "experiment": "Immunoblotting of neutrophil lysates, Src phosphorylation", "type": "cell-based, human", "details": "0.1 μM fMLF-stimulated neutrophils", "protocol": "as §2"}}, "data": [{"smiles": "COc1cc(O)cc(CCc2c(Cc3ccc(O)cc3)ccc(O)c2Cc2ccc(O)cc2)c1", "note": "[bletinib, 3,3′-dihydroxy-2′,6′-bis(p-hydroxybenzyl)-5-methoxybibenzyl]", "values": [{"measurement": "survival time of LPS-primed mice", "setting": "BALB/c mice", "value": "significantly prolonged"}, {"measurement": "IC50", "setting": "human neutrophils [1]; Homo sapiens, Neutrophil, fMLF stimulation, bletinib preincubated 5 min, read-out: superoxide anion produced by fMLF-activated human neutrophils, IC50", "value": 620, "unit": "nM"}, {"measurement": "superoxide anion release from neutrophils stimulated by MMK-1", "setting": "human neutrophils [1]; MMK-1 stimulation", "value": "attenuated"}, {"measurement": "superoxide anion release from neutrophils stimulated by sodium fluoride (NaF)", "setting": "human neutrophils [1]; NaF stimulation", "value": "attenuated"}, {"measurement": "superoxide anion release from neutrophils stimulated by PMA", "setting": "human neutrophils [1]; PMA stimulation", "value": "attenuated"}, {"measurement": "kinase activity of Lyn", "setting": "Lyn", "value": "inhibited"}, {"measurement": "phosphorylation of SFKs", "setting": "p-SFKs Y416", "value": "significantly inhibited"}, {"measurement": "intracellular ROS production, flow cytometry (DHR123 MFI)", "setting": "human neutrophils [2]", "value": "significantly suppressed"}, {"measurement": "phosphorylation of Akt", "setting": "Akt (S473)", "value": "but not"}, {"measurement": "kinase activity of Src", "setting": "Src", "value": "inhibited"}, {"measurement": "IC50", "setting": "human neutrophils [3]; Homo sapiens, Neutrophil, fMLF/CB stimulation, read-out: release of NE in fMLF-stimulated human neutrophils, IC50", "value": "530 ± 70", "unit": "nM"}, {"measurement": "NE release from neutrophils stimulated with LTB4", "setting": "human neutrophils [3]; LTB4/CB, 0.1-10 μM bletinib, concentration-dependent", "value": "downregulated"}, {"measurement": "NE release from neutrophils stimulated with MMK-1", "setting": "human neutrophils [3]; MMK-1/CB, 0.1-10 μM bletinib, concentration-dependent", "value": "downregulated"}, {"measurement": "NE release from neutrophils stimulated with NaF", "setting": "human neutrophils [3]; NaF/CB, 0.1-10 μM bletinib, concentration-dependent", "value": "downregulated"}, {"measurement": "phosphorylation of ERK", "setting": "p-ERK", "value": "significantly inhibited"}, {"measurement": "ROS scavenging activity in the cell-free xanthine and xanthine oxidase system", "setting": "[4]", "value": "did not exhibit"}, {"measurement": "phosphorylation of Vav (Y174)", "setting": "Vav (Y174)", "value": "significantly inhibited"}, {"measurement": "NET formation induced by PMA, fluorescent spectrometry (Sytox green)", "setting": "human neutrophils [5]", "value": "significantly mitigated"}, {"measurement": "kinase activity of Hck", "setting": "Hck", "value": "inhibited"}, {"measurement": "kinase activity of Fgr", "setting": "Fgr", "value": "inhibited"}, {"measurement": "phosphorylation of Src (Y416)", "setting": "Src (Y416)", "value": "significantly inhibited"}]}]}
